According to the supplement of paper PMC10307832:

How the values were obtained:
Experiment in all cases: relative viability (nuclei count vs DMSO), 5 days (fraction); higher = more cells survive
Ruxolitinib + AZD7762 = compound: N#CC[C@H](C1CCCC1)n1cc(-c2ncnc3[nH]ccc23)cn1 [Ruxolitinib] + NC(=O)Nc1cc(-c2cccc(F)c2)sc1C(=O)N[C@H]1CCCNC1 [AZD7762] (partner 0.2 µM)
How it was run: (§1)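 A single step with final 0.05% Triton X-100, 1% formaldehyde and 1 ug/ml Hoechst fixed the cells and stained nuclei 5 days after treatment. Lung cancer cell lines in 1536-well plates had been treated by pin tool the day after seeding with one drug alone or a fixed anchor-drug dose plus five library-drug doses (not always all listed) in √10 steps, and nuclei were counted on 4× images. Relative viability is the ratio of nuclei in treated wells to nuclei in vehicle wells, taken as the median of duplicate plates.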

Vismodegib + Navitoclax = compound: CS(=O)(=O)c1ccc(C(=O)Nc2ccc(Cl)c(-c3ccccn3)c2)c(Cl)c1 [Vismodegib] + CC1(C)CCC(c2ccc(Cl)cc2)=C(CN2CCN(c3ccc(C(=O)NS(=O)(=O)c4ccc(N[C@H](CCN5CCOCC5)CSc5ccccc5)c(S(=O)(=O)C(F)(F)F)c4)cc3)CC2)C1 [Navitoclax] (partner 0.5 µM)
How it was run: as §1

VE-821 + Dasatinib = compound: CS(=O)(=O)c1ccc(-c2cnc(N)c(C(=O)Nc3ccccc3)n2)cc1 [VE-821] + Cc1nc(Nc2ncc(C(=O)Nc3c(C)cccc3Cl)s2)cc(N2CCN(CCO)CC2)n1 [Dasatinib] (partner 0.075 µM)
How it was run: as §1

Vismodegib + Palbociclib = compound: CS(=O)(=O)c1ccc(C(=O)Nc2ccc(Cl)c(-c3ccccn3)c2)c(Cl)c1 [Vismodegib] + CC(=O)c1c(C)c2cnc(Nc3ccc(N4CCNCC4)cn3)nc2n(C2CCCC2)c1=O [Palbociclib] (partner 0.5 µM)
How it was run: as §1

Row | Cell Line | relative viability (Ruxolitinib + AZD7762; first compound 0.08 µM) | relative viability (Ruxolitinib + AZD7762; first compound 0.253 µM) | relative viability (Ruxolitinib + AZD7762; first compound 0.8 µM) | relative viability (Ruxolitinib + AZD7762; first compound 2.53 µM) | relative viability (Ruxolitinib + AZD7762; first compound 8 µM) | relative viability (Vismodegib + Navitoclax; first compound 0.08 µM) | relative viability (Vismodegib + Navitoclax; first compound 0.253 µM) | relative viability (Vismodegib + Navitoclax; first compound 0.8 µM) | relative viability (Vismodegib + Navitoclax; first compound 2.53 µM) | relative viability (Vismodegib + Navitoclax; first compound 8 µM) | relative viability (VE-821 + Dasatinib; first compound 0.08 µM) | relative viability (VE-821 + Dasatinib; first compound 0.253 µM) | relative viability (VE-821 + Dasatinib; first compound 0.8 µM) | relative viability (VE-821 + Dasatinib; first compound 2.53 µM) | relative viability (VE-821 + Dasatinib; first compound 8 µM) | relative viability (Vismodegib + Palbociclib; first compound 0.08 µM) | relative viability (Vismodegib + Palbociclib; first compound 0.253 µM) | relative viability (Vismodegib + Palbociclib; first compound 0.8 µM) | relative viability (Vismodegib + Palbociclib; first compound 2.53 µM) | relative viability (Vismodegib + Palbociclib; first compound 8 µM)
1 | NCI-H1395 | 0.422 | 0.385 | 0.424 | 0.356 | 0.407 | 1.02 | 1.09 | 1.01 | 1.11 | 1.23 | 0.396 | 0.432 | 0.38 | 0.45 | 0.401 | 0.609 | 0.599 | 0.606 | 0.711 | 0.673
2 | NCI-H1437 | 1.18 | 1.11 | 1.19 | 1.04 | 0.925 | 0.945 | 1.08 | 1.09 | 1.07 | 1.1 | 0.479 | 0.357 | 0.386 | 0.498 | 0.302 | 0.305 | 0.303 | 0.309 | 0.311 | 0.325
3 | NCI-H1651 | 0.512 | 0.449 | 0.533 | 0.545 | 0.689 | 0.954 | 0.956 | 0.984 | 0.885 | 1.11 | 0.471 | 0.46 | 0.424 | 0.437 | 0.323 | 0.463 | 0.511 | 0.502 | 0.51 | 0.54
4 | NCI-H1666 | 0.869 | 0.868 | 0.921 | 0.841 | 0.974 | 1.08 | 1.02 | 1.15 | 0.936 | 0.934 | 0.841 | 0.78 | 0.816 | 0.695 | 0.578 | 0.634 | 0.678 | 0.637 | 0.624 | 0.691
5 | NCI-H1734 | 0.638 | 0.629 | 0.662 | 0.54 | 0.602 | 0.878 | 0.835 | 0.846 | 0.77 | 0.897 | 0.51 | 0.455 | 0.479 | 0.425 | 0.33 | 0.372 | 0.348 | 0.364 | 0.255 | 0.358
6 | NCI-H1755 | 0.497 | 0.465 | 0.573 | 0.471 | 0.343 | 0.961 | 0.957 | 1.04 | 0.934 | 0.985 | 0.455 | 0.452 | 0.372 | 0.413 | 0.318 | 0.49 | 0.456 | 0.409 | 0.368 | 0.502
7 | NCI-H1792 | 0.557 | 0.636 | 0.63 | 0.475 | 0.391 | 0.634 | 0.655 | 0.588 | 0.616 | 0.619 | 0.981 | 0.89 | 0.731 | 0.851 | 0.727 | 0.668 | 0.639 | 0.653 | 0.644 | 0.673
8 | NCI-H1793 | 0.759 | 0.502 | 0.595 | 0.437 | 0.391 |  | 0.481 | 0.504 | 0.522 | 0.373 | 0.376 | 0.371 | 0.437 | 0.427 | 0.386 |  | 0.295 | 0.345 | 0.321 | 0.422
9 | NCI-H1915 | 0.687 | 0.681 | 0.753 | 0.572 | 0.593 | 0.773 | 0.805 | 0.747 | 0.729 | 0.759 | 0.335 | 0.295 | 0.345 | 0.33 | 0.332 | 0.499 | 0.483 | 0.549 | 0.53 | 0.53
10 | NCI-H1944 | 0.576 | 0.612 | 0.642 | 0.469 | 0.68 | 0.994 | 1.05 | 1.04 | 1.02 | 0.999 | 0.22 | 0.213 | 0.185 | 0.27 | 0.228 | 0.292 | 0.324 | 0.326 |  | 0.379
11 | NCI-H1975 | 0.669 | 0.643 | 0.675 | 0.67 | 0.501 | 1.2 | 1.06 | 1.22 | 1.08 | 1.09 | 0.372 | 0.287 |  | 0.278 | 0.253 | 0.666 | 0.521 | 0.662 | 0.542 | 0.559
